The source of these data is patent publication US11261136B2, “Triarylmethane compounds for controlling enzyme-induced urea decomposition” (priority 2017, dated 2022).

Like-named read-outs stand apart in the source and are kept apart here.

Series [1] addresses T1, jackbean urease enzyme (Canavalia ensiformis, UniProt P07374).
T1 construct: purchased
As to the kind of experiment: Jackbean urease inhibition, Example 1 repeated with buffer at pH 7. It counts as biochemical. The method, then: (§1) An aqueous solution containing 0.105 moles/L of monosodium phosphate was adjusted to a pH of 5.0 with sodium hydroxide. Suitable quantities of a solution of 3,3′,4-trihydroxysuchsone-2″-sulfonic acid were added, with stirring, to 19.0 mL of the above phosphate solution, to give a series of mixtures having the following concentrations of sulfonic acid: 100, 250, 500, 750, 1000, 2000, and 5000 ppb. Next, commercial jackbean urease enzyme solution of known concentration was added to each mixture to provide 40 units of enzyme per 50 mL of the mixture. The mixtures were allowed to stand for 5 hours in closed glass containers at 20° C., followed by the addition to each mixture of 1.00 mL of freshly prepared urea solution (2.00 moles/L), to give an overall reaction concentration of 0.100 moles/L of both urea and phosphate. These mixtures, containing phosphate, sulfonic acid, urease, and urea were deemed A mixtures.
(§2) Simultaneously, two more solutions were identically prepared, namely an enzyme-free control where both 3,3′,4-trihydroxysuchsone-2″-sulfonic acid and enzyme are omitted (mixture B), and an enzyme control where enzyme is present without any 3,3′,4-trihydroxysuchsone-2″-sulfonic acid (mixture C). Solution urea concentrations were measured immediately in each of the mixtures, and again after a 120-minute interval.
(§3) For purposes of these tests, the C mixture containing urease and urea was deemed to provide 0% inhibition, whereas the B mixture containing urea without urease was deemed to provide 100% inhibition.
Example 1 was repeated, but with the addition of a buffer to maintain a pH of 7.0 in all of the A, B, and C mixtures. The A mixtures contained the following amounts of the 3,3′,4-trihydroxysuchsone-2″-sulfonic acid: 100, 250, 500, 750, and 1000 ppb. It is known in the art that urease enzyme activity is greater and more difficult to inhibit at neutral pH, as compared with an acid pH, and that the much lower treatment levels would give less urease inhibition.

For series [2], the target named is T1, jackbean urease enzyme. The series is described as follows: biochemical. The note with it: pH 5. On the procedure: as §1, §2, §3
For series [3] the following is noted: cited from earlier work.
Series [4] deals with urease enzyme. The series is described as follows: Nitrogen volatilization of 50:50 urea:water solutions (gas trap and FIA instrument). From the text: Various concentrations of Catechol Violet paired with polymer, were examined utilizing the gas trap and FIA instrument at Alltech (Sparta, Ill.). Treatment replicates are shown across the horizontal axis, and percent Nitrogen concentration (expressed as ammonia that has volatilized) is given in the vertical axis. For FIGS. 1, 2, 4A, and 4B, the treatments proceed in number order along the horizontal axis, moving from left to right, with the left being the lowest treatment number and the right being the highest treatment number. For FIGS. 3A and 3B, the treatments proceed as described above, with the exception of treatment 7, which is the farthest right along the horizontal axis. Briefly, the lower the amount of volatilized nitrogen, the greater the inhibition of the activity of the urease enzyme.
Each set of treatments includes:
• 1) An untreated control (50:50 urea:water, w/w). […] Concentrations and details of each treatment are given in the following paragraphs. 7.1—Three Day Results of Catechol Violet Solutions (FIG. 1)

In series [5] the test system is urease enzyme. The settings on record: industry standard, added at 0.2% v/v of the urea solution; cited from earlier work.
The conditions of series [6]: used with UAN; 87 trials and 487 comparisons; cited from earlier work.
For series [7], the target named is urease (Canavalia ensiformis, UniProt P07374). The settings on record: in solution; cited from earlier work.
urease, sequence (P07374 whole entry, looked up): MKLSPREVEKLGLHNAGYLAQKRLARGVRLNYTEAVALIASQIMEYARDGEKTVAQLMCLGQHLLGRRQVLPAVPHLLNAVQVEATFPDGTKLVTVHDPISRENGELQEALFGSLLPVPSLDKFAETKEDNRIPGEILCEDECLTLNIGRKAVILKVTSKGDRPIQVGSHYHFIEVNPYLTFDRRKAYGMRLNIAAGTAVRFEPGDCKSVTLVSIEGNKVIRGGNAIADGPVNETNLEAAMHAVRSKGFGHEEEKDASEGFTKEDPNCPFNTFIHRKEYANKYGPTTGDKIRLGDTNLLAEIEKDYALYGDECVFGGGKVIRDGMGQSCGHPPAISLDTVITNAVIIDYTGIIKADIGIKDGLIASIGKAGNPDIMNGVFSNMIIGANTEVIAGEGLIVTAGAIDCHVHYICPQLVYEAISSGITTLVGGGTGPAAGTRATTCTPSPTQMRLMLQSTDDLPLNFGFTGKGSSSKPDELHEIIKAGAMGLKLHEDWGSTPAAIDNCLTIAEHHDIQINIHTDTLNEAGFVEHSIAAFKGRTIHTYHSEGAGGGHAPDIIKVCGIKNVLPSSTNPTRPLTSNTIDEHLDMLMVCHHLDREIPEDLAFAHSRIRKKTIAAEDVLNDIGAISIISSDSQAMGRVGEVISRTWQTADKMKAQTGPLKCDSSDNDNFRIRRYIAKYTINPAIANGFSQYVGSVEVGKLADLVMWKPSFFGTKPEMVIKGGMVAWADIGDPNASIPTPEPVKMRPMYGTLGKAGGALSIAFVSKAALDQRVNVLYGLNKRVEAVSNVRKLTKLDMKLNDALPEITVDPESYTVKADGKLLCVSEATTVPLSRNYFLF

T1 sequence (P07374 whole entry, looked up): as above

Turning to `O=C1C=C/C(=C(/c2ccc(O)c(O)c2)c2ccccc2S(=O)(=O)O)C=C1O` [3,3′,4-trihydroxysuchsone-2″-sulfonic acid], in series [1], the inhibition (in general, how much of the control response was suppressed) at 0.1 ppm is 2%; the inhibition at 0.25 ppm is 30%; the inhibition at 0.5 ppm amounted to 41%; testing at 0.75 ppm gave an inhibition of 46%. In series [1], the inhibition at 1 ppm amounted to 50%. Besides, in series [2], testing at 0.1 ppm gave an inhibition of 7%, the inhibition at 0.25 ppm stood at 22%, 0.5 ppm produced 25% inhibition and the inhibition at 0.75 ppm turned out to be 45%. In series [2], this compound gave an inhibition at 1 ppm of 61%, an inhibition at 2 ppm of 76% and an inhibition at 5 ppm of 88%.

Take `CCCCNP(N)(N)=S` [NBPT, N-(n-butyl) thiophosphoric triamide]: the “NBPT content lost on storage” value in series [3] (after six months) is reported as “over 99%”; in series [3] (storage at 25° C. for three months) it was “up to 40%”. For the same compound, the “urease activity and N-loss through volatilization (FIGS. 3A and 3B)” value in series [4] (NBPT (Agrotain Ultra) 0.2% v/v, three and seven day test) was “inhibits urease activity and N-loss through volatilization”. Further, the “7-day N-loss via volatilization (FIG. 4B)” value in series [4] (after 7 days, compared to untreated urea solution) was “continue to limit N-loss via volatilization when compared to the untreated urea solution”. For the same compound, the “inhibition of N-volatilization (historical)” value in series [5] is “near-total inhibition of N-volatilization”. In addition, the “average improvement in yield” value in series [6] is “about 1.6 bushels/acre”. Besides, in series [6], the “trials resulting in yield losses” value is recorded as “about 40%”.

`O=C1C=CC(=O)C=C1` [benzoquinone]: the “concentration at which effective urease inhibitors” value in series [7] is reported as “about 1 ppm by weight”.

As for `Oc1ccccc1O` [catechol], the “concentration at which effective urease inhibitors” value in series [7] is recorded as “about 1 ppm by weight”.
